Reference: ChEMBL document CHEMBL1201862, “PubChem BioAssay data set” (2004)
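Briefly, cells in 96-well plates were exposed to five compound concentrations for 48 h, and endpoints were estimated by linear interpolation. GI50 is the concentration that inhibits growth by half.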 Activity calls are given as the source filed them. Rule as the data show it: active = GI50 up to about 1.1 µM and inactive = higher. Non-standard residues stand in square brackets, D forms with d. Residues, ends and D or L forms follow the SMILES beside them. *: point of attachment. Cbz = O=C(OCc1ccccc1)*; Boc = CC(C)(C)OC(=O)*; Aib = CC(C)(N)C(=O)O; OBn = c1ccc(CO*)cc1; OtBu = CC(C)(C)O*; βAla = NCCC(=O)O

Columns and labels:
Assay in all cases: NCI tumour cell line growth inhibition, 48 h
ACHN = system: ACHN
CAKI-1 = system: CAKI-1
CCRF-CEM = system: CCRF-CEM
DU-145 = system: DU-145
HCC 2998 = system: HCC 2998
HCT-15 = system: HCT-15
HL-60 = system: HL-60
Hs-578T = system: Hs-578T
MDA-MB-231 = system: MDA-MB-231
MDA-N = system: MDA-N
Malme-3M = system: Malme-3M
NCI-H23 = system: NCI-H23
NCI-H460 = system: NCI-H460
SF-539 = system: SF-539
SK-MEL-5 = system: SK-MEL-5
SN12C = system: SN12C
SR = system: SR
T47D = system: T47D
RXF 393 = system: RXF 393

| SMILES | GI50 (ACHN) | GI50 (CAKI-1) | GI50 (CCRF-CEM) | GI50 (DU-145) | GI50 (HCC 2998) | GI50 (HCT-15) | GI50 (HL-60) | GI50 (Hs-578T) | GI50 (MDA-MB-231) | GI50 (MDA-N) | GI50 (Malme-3M) | GI50 (NCI-H23) | GI50 (NCI-H460) | GI50 (SF-539) | GI50 (SK-MEL-5) | GI50 (SN12C) | GI50 (SR) | GI50 (T47D) | GI50 (RXF 393) |
| --- | --- | --- | --- | --- | --- | --- | --- | --- | --- | --- | --- | --- | --- | --- | --- | --- | --- | --- | --- |
| CC1=NC(=Cc2cccc(Cl)c2)C(=O)N1n1c(-c2ccccc2)nc2ccccc2c1=O | 24.5 µM (inactive) | 22.8 µM (inactive) | 35.6 µM (inactive) | 38.9 µM (inactive) | 24.5 µM (inactive) | 39.3 µM | 22.8 µM (inactive) | 24.5 µM (inactive) | 48.5 µM (inactive) | 30.4 µM (inactive) | 26.9 µM (inactive) | 25.6 µM (inactive) | 19.3 µM (inactive) | 36.1 µM (inactive) | 28.2 µM (inactive) | 40.4 µM (inactive) | 25.2 µM (inactive) | 19.8 µM (inactive) | – |
| COc1ccc(C(=O)/C=C/c2cccnc2)cc1OC | 13.8 µM (inactive) | 4.44 µM (inactive) | 3.51 µM (inactive) | 14.6 µM (inactive) | – | 11.4 µM | 2.36 µM (inactive) | 14.6 µM (inactive) | 11.1 µM (inactive) | 12.4 µM (inactive) | 15.2 µM (inactive) | 10.6 µM (inactive) | – | 2.73 µM (inactive) | 14.1 µM (inactive) | 6.25 µM (inactive) | 1.54 µM (inactive) | 8.45 µM (inactive) | 5.81 µM (inactive) |
| O=C(O)CCCc1nc2c(n1-c1ccccc1)C(=O)c1ccccc1C2=O | 68.1 µM (inactive) | > 100 µM (inactive) | 40.7 µM (inactive) | > 100 µM (inactive) | 91.8 µM (inactive) | 74.5 µM | 37.4 µM (inactive) | > 100 µM (inactive) | 77.3 µM (inactive) | 43.5 µM (inactive) | 21.6 µM (inactive) | 65.8 µM (inactive) | > 100 µM (inactive) | 94 µM (inactive) | – | 52.5 µM (inactive) | 77.8 µM (inactive) | > 100 µM (inactive) | – |
| CCOc1cc2c(cc1O)CC[C@@H]1[C@@H]2CC[C@]2(C)C(N)CC[C@@H]12 (some centres not stated) | 4.58 µM (inactive) | 4.22 µM (inactive) | 1.73 µM (inactive) | 2.36 µM (inactive) | 2.22 µM (inactive) | 3.4 µM | 1.42 µM (inactive) | 3.67 µM (inactive) | 2.12 µM (inactive) | 1.44 µM (inactive) | 11.8 µM (inactive) | 3.48 µM (inactive) | 2.91 µM (inactive) | 2.36 µM (inactive) | 3.56 µM (inactive) | 4.09 µM (inactive) | – | 8.53 µM (inactive) | 1.21 µM (inactive) |
| COc1ccc(C(=O)N2CCN(c3ccc4c(c3)OCC(=O)N4)CC2)cc1OC | > 100 µM (inactive) | – | > 100 µM (inactive) | > 100 µM (inactive) | > 100 µM (inactive) | > 100 µM | > 100 µM (inactive) | > 100 µM (inactive) | > 100 µM (inactive) | > 100 µM (inactive) | > 100 µM (inactive) | > 100 µM (inactive) | > 100 µM (inactive) | > 100 µM (inactive) | > 100 µM (inactive) | > 100 µM (inactive) | > 100 µM (inactive) | 54.3 µM (inactive) | – |
| C=C(C)C(=O)OC1C[C@H](COC(C)=O)C2CC=C(CO)C2C2OC(=O)C(=C)[C@H]12 (some centres not stated) | 44.3 µM (inactive) | 41.6 µM (inactive) | 10.4 µM (inactive) | > 100 µM (inactive) | 47.2 µM (inactive) | 24.8 µM | 23.1 µM (inactive) | > 100 µM (inactive) | 51.8 µM (inactive) | 34.5 µM (inactive) | 16.8 µM (inactive) | 42.8 µM (inactive) | > 100 µM (inactive) | > 100 µM (inactive) | > 100 µM (inactive) | – | 23.2 µM (inactive) | 34.8 µM (inactive) | – |
| COCC#C[C@@]1(O)CCCCC1CC(OC)OC (some centres not stated) | > 100 µM (inactive) | > 100 µM (inactive) | 38.5 µM (inactive) | > 100 µM (inactive) | > 100 µM (inactive) | 76.2 µM | 55.1 µM (inactive) | > 100 µM (inactive) | > 100 µM (inactive) | > 100 µM (inactive) | 64.9 µM (inactive) | > 100 µM (inactive) | > 100 µM (inactive) | – | > 100 µM (inactive) | > 100 µM (inactive) | 40.3 µM (inactive) | > 100 µM (inactive) | > 100 µM (inactive) |
| COc1cc(C)cc(C(=O)/C=C/c2ccccc2)c1O | 18.3 µM (inactive) | 19.5 µM (inactive) | 27.7 µM (inactive) | 14.1 µM (inactive) | 18.8 µM (inactive) | 18.1 µM | 26.4 µM (inactive) | 32.8 µM (inactive) | 22.5 µM (inactive) | 23.7 µM (inactive) | – | 16.9 µM (inactive) | 20.2 µM (inactive) | – | 19.8 µM (inactive) | 16.9 µM (inactive) | 30.9 µM (inactive) | 11.1 µM (inactive) | 16.3 µM (inactive) |
| CC(C)OP(=O)(CN(C)/C(F)=N\C(F)(F)F)OC(C)C | > 100 µM (inactive) | > 100 µM (inactive) | > 100 µM (inactive) | > 100 µM (inactive) | > 100 µM (inactive) | > 100 µM | 63.8 µM (inactive) | > 100 µM (inactive) | > 100 µM (inactive) | > 100 µM (inactive) | > 100 µM (inactive) | > 100 µM (inactive) | > 100 µM (inactive) | > 100 µM (inactive) | > 100 µM (inactive) | > 100 µM (inactive) | – | > 100 µM (inactive) | > 100 µM (inactive) |
| CC(C)(C)OC(=O)CC(NC(=O)OC(C)(C)C)C(=O)NC(CCCCNC(=O)OCc1ccccc1)C(=O)NC(C)(C)C(=O)NCCC(=O)OCc1ccccc1 (configuration not stated) (Boc-D(OtBu)K(Cbz)[Aib][βAla]-OBn; configuration not given here) | > 100 µM (inactive) | > 100 µM (inactive) | – | > 100 µM (inactive) | – | > 100 µM | > 100 µM (inactive) | > 100 µM (inactive) | > 100 µM (inactive) | > 100 µM (inactive) | > 100 µM (inactive) | > 100 µM (inactive) | > 100 µM (inactive) | > 100 µM (inactive) | > 100 µM (inactive) | > 100 µM (inactive) | > 100 µM (inactive) | > 100 µM (inactive) | > 100 µM (inactive) |
| C[C@]12CC/C(=N\O)C=C1CC[C@@H]1[C@@H]2CC[C@]2(C)C(=N/O)/C(=C/c3ccc([N+](=O)[O-])cc3)C[C@@H]12 | 5.21 µM (inactive) | 2.29 µM (inactive) | 2.5 µM (inactive) | 5.35 µM (inactive) | – | 3.44 µM | 1.85 µM (inactive) | 3.5 µM (inactive) | 6.64 µM (inactive) | 4.03 µM (inactive) | 15 µM (inactive) | 6 µM (inactive) | 44.8 µM (inactive) | 10.4 µM (inactive) | 3.21 µM (inactive) | 4.27 µM (inactive) | 2.79 µM (inactive) | 1.05 µM (active) | 59.6 µM (inactive) |
